The subject of one experiment is HCV replicon cells. In words: HCV replicon assay. It is filed as cell-based. The procedure: Cells expressing the HCV replicon are seeded onto the internal wells of 96-well plates at a density of 7,000 cells per well. One day later, different dilutions of the test compounds are added to corresponding wells and the plates are incubated in a CO2 incubator for 72 hours. After treatment, the cells are lysed with 70 μl RLN buffer per well (50 mM Tris-HCl [pH8.0], 140 mM NaCl, 1.5 mM MgCl2, 0.5% Nonidet P-40, 1,000 units/mL RNAsin and 1 mM […]). The total lysate is transferred to a new U bottom 96-well plate and nuclei and cell debris are pelleted with a brief spin (300×g for 3 minutes). 50 μl of supernatant is removed from the well and loaded directly onto manifold wells equipped with Nylon membranes. HCV RNA is hybridized at 58° C. overnight using a labeled HCV RNA probe containing a negative strand sequence complement to the NS5B region. Hybridization buffer is composed of 50% formamide, 5×SSPE, 1% SDS, 5×Denhart's solution, and sheared denatured salmon sperm DNA. Following hybridization, the membrane is washed with washing buffer (0.1×SSC, 0.1% SDS) at room temperature for two hours, then at 65° C. for 30 minutes. The radioactivity in each well is counted on a Microbeta counter and EC50 is calculated based on cpm.
Alternatively, HCV replicon cells are trypsinized for 5-10 minutes in a CO2 incubator. Then, cells are placed in a 15 mL tube, and are spun at 1000 rpm for 4 minutes and trypsin solution is removed. Cell pellets are washed once with PBS and spun 4 minutes at 1000 rpm.
Trypsinization and wash steps, supra, are conducted efficiently to minimize cell death. PBS is removed and cells are resuspended in 4 mL fresh PBS and cells are seeded at a dilution of 5000 cells per well to 96 well plates. Test compounds are diluted in 96 well U bottom plates with DMEM (high glucose) (BRL, Catalog #21063) supplemented with 10% FBS, L-glutamine, and non-essential amino acid. 100 uL of test compound is loaded into each well. […]
100 uL of development solution (TMB one-step substrate system) is added and plates are developed in the dark for 10 to 30 minutes. […] OD450 is measured.
A general note: Replicon systems follow genome replication, usually without infectious particles.

The target of experiment [1] is T1, synthetic NS4A (Hepatitis C virus genotype 1b, UniProt Q9WMX2).
T1 construct: The full length of NS4A (54 amino acids) is synthesized; made in house
In words: Competition assay for NS4A binding against [3H] labeled azidoacylthiourea. Set-up: species or system HCV. The protocol:
(§1) To determine whether acylthiourea compounds bind to NS4A, a photo-affinity labeling is carried out, in which an [^3H] labeled photo-reactive azidoacylthiourea, 1-(5-Azido-benzofuran-2-carbonyl)-3-(4-pentyloxy-3-trifluoromethyl-phenyl)-thiourea, is mixed with synthetic NS4A at various molar ratios. The mixture is incubated at 31° C. for one hour. Samples are then illuminated by a UV lamp (254 nm wavelength) at room temperature for 7 minutes. After denaturing with equal volume of Laemmli buffer containing 5% mercaptoethanol at 99° C. for 5 minutes, samples are separated on a 10-20% SDS-PAGE. After electrophoresis, the gel is fixed with 30% methanol-10% acetic acid overnight. Then the gel is treated with 3H enhancer solution (PerkinElmer) at room temperature for one hour, and subsequently with water for 30 minutes, and dried under vacuum.
To study the binding specificity of [^3H] labeled 1-(5-Azido-benzofuran-2-carbonyl)-3-(4-pentyloxy-3-trifluoromethyl-phenyl)-thiourea to synthetic NS4A, several structurally related compounds are used in the following competition assays. Non-labeled 1-(5-Azido-benzofuran-2-carbonyl)-3-(4-pentyloxy-3-trifluoromethyl-phenyl)-thiourea shares the same structure with [^3H] labeled 1-(5-Azido-benzofuran-2-carbonyl)-3-(4-pentyloxy-3-trifluoromethyl-phenyl)-thiourea. 1-(5-Azido-benzofuran-2-carbonyl)-3-(4-pentyloxy-3-trifluoromethyl-phenyl)-urea differs in structure from 1-(5-Azido-benzofuran-2-carbonyl)-3-(4-pentyloxy-3-trifluoromethyl-phenyl)-thiourea in that 1-(5-Azido-benzofuran-2-carbonyl)-3-(4-pentyloxy-3-trifluoromethyl-phenyl)-urea has a carbonyl group where 1-(5-Azido-benzofuran-2-carbonyl)-3-(4-pentyloxy-3-trifluoromethyl-phenyl)-thiourea has a thiocarbonyl group. […]

Experiment [2] concerns the target T1, synthetic NS4A. In words: Photo-affinity labeling of synthetic NS4A. Conditions: [3H] labeled compound, UV 254 nm photolysis, SDS-PAGE. The class given is binding, HCV. The procedure: Experiments are undertaken to investigate the affinity and binding specificity of acylthiourea compounds to NS4A. The full length of NS4A (54 amino acids) is synthesized, and characterized with mass spectral analysis and HPLC profiling. An NS4A sample is then dissolved in 100% dimethylsulphoxide (DMSO) at a concentration of 2 μg/μl, and subjected to a 10-20% SDS-PAGE with a reducing reagent. A 6 kDa protein band, consistent with the size of NS4A, is detected in the gel following a Coomassie blue staining. The NS4A identity of this band is further confirmed by a Western blot with monoclonal anti-NS4A antibody.
as §1, with “Then the gel is treated with 3H enhancer solution (PerkinElmer) at room temperature for one hour, and subsequently with water for 30 minutes, and dried under vacuum.” left out

The target of another experiment is NS3 protease domain (Hepatitis C virus genotype 1b, UniProt Q9WMX2). In words: Photo-affinity labeling binding assay, NS3 protease domain. Set-up: species or system HCV. The following applies: 3.3 μM protein. The protocol:
as §1
(§2) One band corresponds to NS4A monomer, which is also detectable with Coomassie blue staining (FIG. 3). […] Without being bound by any particular theory, it is believed that this band may be composed largely of polymer form or aggregates of NS4A. At the same time, full-length NS3 and NS3 protease domain is included in this binding assay.

The target of the next experiment is full-length NS3 (Hepatitis C virus genotype 1b, UniProt Q9WMX2). Description: Photo-affinity labeling binding assay, full-length NS3. Set-up: species or system HCV. Conditions: 3.3 μM protein. The protocol: as §1, §2

Entries after “also recorded” stand apart in the source; their conditions may differ.

T1 sequence (Q9WMX2 1658-1711): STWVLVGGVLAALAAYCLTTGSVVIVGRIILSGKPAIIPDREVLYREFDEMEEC
Chain of full-length NS3 (Q9WMX2 1027-1657): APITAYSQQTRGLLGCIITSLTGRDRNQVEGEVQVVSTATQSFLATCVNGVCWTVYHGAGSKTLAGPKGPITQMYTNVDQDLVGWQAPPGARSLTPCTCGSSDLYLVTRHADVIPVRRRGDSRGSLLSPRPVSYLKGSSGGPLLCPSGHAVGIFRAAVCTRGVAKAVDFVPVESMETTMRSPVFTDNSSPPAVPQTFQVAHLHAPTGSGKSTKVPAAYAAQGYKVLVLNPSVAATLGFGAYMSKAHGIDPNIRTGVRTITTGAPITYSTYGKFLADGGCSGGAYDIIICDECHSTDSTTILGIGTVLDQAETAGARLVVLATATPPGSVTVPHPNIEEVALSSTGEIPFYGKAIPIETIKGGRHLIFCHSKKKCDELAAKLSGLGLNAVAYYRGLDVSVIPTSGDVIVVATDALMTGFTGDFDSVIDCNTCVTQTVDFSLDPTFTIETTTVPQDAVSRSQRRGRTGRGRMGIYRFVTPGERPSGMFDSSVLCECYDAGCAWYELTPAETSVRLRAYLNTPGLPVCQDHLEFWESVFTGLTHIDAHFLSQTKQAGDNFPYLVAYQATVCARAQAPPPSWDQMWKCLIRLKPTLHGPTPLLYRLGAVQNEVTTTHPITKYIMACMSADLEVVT
Chain of NS3 protease domain (Q9WMX2 1027-1208): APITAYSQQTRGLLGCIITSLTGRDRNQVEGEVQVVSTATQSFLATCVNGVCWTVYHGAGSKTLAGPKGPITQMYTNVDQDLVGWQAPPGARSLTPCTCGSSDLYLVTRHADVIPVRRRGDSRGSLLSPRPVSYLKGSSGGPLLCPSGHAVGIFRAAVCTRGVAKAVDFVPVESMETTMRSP

For the compound `CCCCCOc1ccc(NC(=O)NC(=O)c2cc3cc(N=[N+]=[N-])ccc3o2)cc1C(F)(F)F` [1-(5-Azido-benzofuran-2-carbonyl)-3-(4-pentyloxy-3-trifluoromethyl-phenyl)-urea], the “anti-HCV activity in replicon cells” value in the experiment on HCV replicon cells is “does not exhibit any anti-HCV activity”. On synthetic NS4A [1], the “competition with [3H] labeled azidoacylthiourea for NS4A binding” value (“competition” below) was “does not compete; also recorded: abolish this competition capacity”.

For the compound `CCCCCOc1ccc(NC(=S)NC(=O)c2cc3cc(N=[N+]=[N-])ccc3o2)cc1C(F)(F)F` [1-(5-Azido-benzofuran-2-carbonyl)-3-(4-pentyloxy-3-trifluoromethyl-phenyl)-thiourea], the “binding to synthetic NS4A” value on synthetic NS4A [2] is listed as “binds to synthetic NS4A; also recorded: two radioactive bands”. Further, the “binding to NS3 protease domain” value at NS3 protease domain is listed as “weak binding signals”. Also, at full-length NS3, the “binding to full-length NS3” value is “weak binding signals”.

For the compound `CCCCCOc1ccc(NC(=S)NC(=O)c2cccnc2)cc1C(F)(F)F` [1-(4-Pentyloxy-3-trifluoromethyl-phenyl)-3-(pyridine-3-carbonyl)-thiourea], the “anti-HCV activity in replicon cells” value in the experiment with HCV replicon cells is “exhibit anti-HCV activities”. For the same compound, the “competition” value at synthetic NS4A [1] is listed as “effectively compete”.

As to `CCCCCOc1ccc(NC(=S)NC(=O)c2cc3ccccc3o2)cc1C(F)(F)F` [1-(Benzofuran-2-carbonyl)-3-(4-pentyloxy-3-trifluoromethyl-phenyl)-thiourea], the “anti-HCV activity in replicon cells” value with HCV replicon cells is “exhibit anti-HCV activities”. Moreover, the “competition” value on synthetic NS4A [1] is “effectively compete”.

The record behind these values is patent publication US20090081636A1, “Pharmaceutical compositions for and methods of inhibiting HCV replication” (priority 2005, published 2009).
